US20230312576A1, “4-(7H-PYRROLO[2,3-D]PYRIMIDIN-4-YL)-3,6-DIHYDROPYRIDINE-1-(2H)-CARBOXAMIDE DERIVATIVES AS LIMK AND/OR ROCK KINASES INHIBITORS FOR USE IN THE TREATMENT OF CANCER” (CENTRE NATIONAL DE LA RECHERCHE SCIENTIFIQUE, priority 2020, published 2023)
Like-named read-outs stand apart in the source and are kept apart here.

Key:
[1] = biological target: LIMK1 (Homo sapiens (Human), UniProt P53667); experiment: Lanthascreen Eu binding assay (TR-FRET), inhibition of LIMK1
[2] = biological target: LIMK2 (Homo sapiens (Human), UniProt P53671); experiment: Lanthascreen Eu binding assay (TR-FRET), inhibition of LIMK2
[3] = biological target: ROCK1 (Homo sapiens (Human), UniProt Q13464); experiment: Z'Lyte assay, ROCK1 inhibition at a single concentration; assay type: biochemical
[4] = biological target: ROCK2 (Homo sapiens (Human), UniProt O75116); experiment: Z'Lyte assay, ROCK2 inhibition at a single concentration; assay type: biochemical
[5] = read-out: % inhibition (ROCK1) 1 uM, 1 uM
[6] = read-out: % inhibition (ROCK2) 1 uM, 1 uM
[7] = read-out: % inhibition (ROCK1) 1 uM
[8] = read-out: % inhibition (ROCK2) 1 uM

Sequence of LIMK1 (P53667 whole entry): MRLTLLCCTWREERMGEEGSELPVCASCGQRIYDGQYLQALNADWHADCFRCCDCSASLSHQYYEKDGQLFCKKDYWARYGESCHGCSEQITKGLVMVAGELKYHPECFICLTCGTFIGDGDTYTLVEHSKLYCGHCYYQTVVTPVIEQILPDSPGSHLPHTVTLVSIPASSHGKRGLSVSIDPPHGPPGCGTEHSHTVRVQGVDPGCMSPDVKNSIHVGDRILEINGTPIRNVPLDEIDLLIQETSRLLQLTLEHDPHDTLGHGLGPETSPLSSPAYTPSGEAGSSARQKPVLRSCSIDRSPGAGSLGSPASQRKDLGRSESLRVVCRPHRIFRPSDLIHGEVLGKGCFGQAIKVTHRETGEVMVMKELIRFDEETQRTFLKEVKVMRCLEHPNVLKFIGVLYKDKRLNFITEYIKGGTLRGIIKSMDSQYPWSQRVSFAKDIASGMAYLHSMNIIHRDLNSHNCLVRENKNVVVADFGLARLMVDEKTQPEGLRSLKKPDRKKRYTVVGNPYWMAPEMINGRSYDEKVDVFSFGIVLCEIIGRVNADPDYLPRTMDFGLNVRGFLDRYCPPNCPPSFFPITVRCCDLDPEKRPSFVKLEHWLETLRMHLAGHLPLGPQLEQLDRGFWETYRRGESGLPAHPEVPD
Sequence of LIMK2 (P53671 whole entry): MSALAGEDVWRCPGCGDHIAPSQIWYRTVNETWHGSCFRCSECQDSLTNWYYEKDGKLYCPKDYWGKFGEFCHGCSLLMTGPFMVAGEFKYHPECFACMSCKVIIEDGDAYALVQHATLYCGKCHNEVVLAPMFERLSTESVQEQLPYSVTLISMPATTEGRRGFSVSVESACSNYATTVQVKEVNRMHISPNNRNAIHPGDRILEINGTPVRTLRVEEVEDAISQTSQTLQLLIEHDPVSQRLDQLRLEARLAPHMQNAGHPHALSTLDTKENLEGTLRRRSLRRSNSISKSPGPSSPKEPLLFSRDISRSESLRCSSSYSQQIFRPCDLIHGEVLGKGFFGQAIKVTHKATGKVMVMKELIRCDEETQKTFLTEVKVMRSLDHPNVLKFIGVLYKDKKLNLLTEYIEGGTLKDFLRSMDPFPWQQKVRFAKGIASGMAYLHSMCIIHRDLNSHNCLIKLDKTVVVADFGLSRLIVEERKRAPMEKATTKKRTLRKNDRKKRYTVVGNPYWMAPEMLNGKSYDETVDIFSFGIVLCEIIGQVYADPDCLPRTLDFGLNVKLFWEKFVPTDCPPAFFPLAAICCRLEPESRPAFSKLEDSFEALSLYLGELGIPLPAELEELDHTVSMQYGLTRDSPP
Sequence of ROCK2 (O75116 whole entry): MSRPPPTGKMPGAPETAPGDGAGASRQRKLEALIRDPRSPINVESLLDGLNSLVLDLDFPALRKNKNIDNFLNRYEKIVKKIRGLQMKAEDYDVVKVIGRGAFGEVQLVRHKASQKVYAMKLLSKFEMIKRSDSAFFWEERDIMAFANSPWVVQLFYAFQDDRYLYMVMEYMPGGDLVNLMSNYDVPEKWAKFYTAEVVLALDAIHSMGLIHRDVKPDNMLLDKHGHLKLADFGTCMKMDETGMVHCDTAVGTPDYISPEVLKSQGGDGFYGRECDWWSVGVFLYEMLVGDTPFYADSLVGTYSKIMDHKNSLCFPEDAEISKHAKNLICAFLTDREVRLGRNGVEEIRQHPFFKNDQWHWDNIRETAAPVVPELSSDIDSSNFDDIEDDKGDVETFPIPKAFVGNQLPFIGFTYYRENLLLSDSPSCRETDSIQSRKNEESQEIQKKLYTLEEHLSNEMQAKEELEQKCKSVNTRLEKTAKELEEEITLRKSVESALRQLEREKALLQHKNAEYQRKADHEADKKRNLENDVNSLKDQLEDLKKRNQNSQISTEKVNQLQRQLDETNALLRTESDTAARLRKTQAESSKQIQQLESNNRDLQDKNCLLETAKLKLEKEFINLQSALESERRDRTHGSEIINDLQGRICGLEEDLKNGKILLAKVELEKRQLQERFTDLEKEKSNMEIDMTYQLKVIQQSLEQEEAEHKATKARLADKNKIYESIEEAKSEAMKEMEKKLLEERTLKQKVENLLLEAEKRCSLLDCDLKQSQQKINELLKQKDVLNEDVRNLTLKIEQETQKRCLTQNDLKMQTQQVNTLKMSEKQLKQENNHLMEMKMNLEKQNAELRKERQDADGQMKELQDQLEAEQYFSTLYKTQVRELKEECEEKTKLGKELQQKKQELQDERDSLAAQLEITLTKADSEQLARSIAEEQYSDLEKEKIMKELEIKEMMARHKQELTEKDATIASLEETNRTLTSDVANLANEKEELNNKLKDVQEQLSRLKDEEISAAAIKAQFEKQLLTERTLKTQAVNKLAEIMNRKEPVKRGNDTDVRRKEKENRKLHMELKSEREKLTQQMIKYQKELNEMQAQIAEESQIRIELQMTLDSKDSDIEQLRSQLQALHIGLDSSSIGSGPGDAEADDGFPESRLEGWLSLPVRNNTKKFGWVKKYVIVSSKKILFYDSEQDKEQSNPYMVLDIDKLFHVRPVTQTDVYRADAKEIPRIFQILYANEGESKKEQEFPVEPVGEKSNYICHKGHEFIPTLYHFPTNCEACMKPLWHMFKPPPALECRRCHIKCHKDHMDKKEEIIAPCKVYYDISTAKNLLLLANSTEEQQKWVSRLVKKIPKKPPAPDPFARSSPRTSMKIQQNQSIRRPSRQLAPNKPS
Sequence of ROCK1 (Q13464 whole entry): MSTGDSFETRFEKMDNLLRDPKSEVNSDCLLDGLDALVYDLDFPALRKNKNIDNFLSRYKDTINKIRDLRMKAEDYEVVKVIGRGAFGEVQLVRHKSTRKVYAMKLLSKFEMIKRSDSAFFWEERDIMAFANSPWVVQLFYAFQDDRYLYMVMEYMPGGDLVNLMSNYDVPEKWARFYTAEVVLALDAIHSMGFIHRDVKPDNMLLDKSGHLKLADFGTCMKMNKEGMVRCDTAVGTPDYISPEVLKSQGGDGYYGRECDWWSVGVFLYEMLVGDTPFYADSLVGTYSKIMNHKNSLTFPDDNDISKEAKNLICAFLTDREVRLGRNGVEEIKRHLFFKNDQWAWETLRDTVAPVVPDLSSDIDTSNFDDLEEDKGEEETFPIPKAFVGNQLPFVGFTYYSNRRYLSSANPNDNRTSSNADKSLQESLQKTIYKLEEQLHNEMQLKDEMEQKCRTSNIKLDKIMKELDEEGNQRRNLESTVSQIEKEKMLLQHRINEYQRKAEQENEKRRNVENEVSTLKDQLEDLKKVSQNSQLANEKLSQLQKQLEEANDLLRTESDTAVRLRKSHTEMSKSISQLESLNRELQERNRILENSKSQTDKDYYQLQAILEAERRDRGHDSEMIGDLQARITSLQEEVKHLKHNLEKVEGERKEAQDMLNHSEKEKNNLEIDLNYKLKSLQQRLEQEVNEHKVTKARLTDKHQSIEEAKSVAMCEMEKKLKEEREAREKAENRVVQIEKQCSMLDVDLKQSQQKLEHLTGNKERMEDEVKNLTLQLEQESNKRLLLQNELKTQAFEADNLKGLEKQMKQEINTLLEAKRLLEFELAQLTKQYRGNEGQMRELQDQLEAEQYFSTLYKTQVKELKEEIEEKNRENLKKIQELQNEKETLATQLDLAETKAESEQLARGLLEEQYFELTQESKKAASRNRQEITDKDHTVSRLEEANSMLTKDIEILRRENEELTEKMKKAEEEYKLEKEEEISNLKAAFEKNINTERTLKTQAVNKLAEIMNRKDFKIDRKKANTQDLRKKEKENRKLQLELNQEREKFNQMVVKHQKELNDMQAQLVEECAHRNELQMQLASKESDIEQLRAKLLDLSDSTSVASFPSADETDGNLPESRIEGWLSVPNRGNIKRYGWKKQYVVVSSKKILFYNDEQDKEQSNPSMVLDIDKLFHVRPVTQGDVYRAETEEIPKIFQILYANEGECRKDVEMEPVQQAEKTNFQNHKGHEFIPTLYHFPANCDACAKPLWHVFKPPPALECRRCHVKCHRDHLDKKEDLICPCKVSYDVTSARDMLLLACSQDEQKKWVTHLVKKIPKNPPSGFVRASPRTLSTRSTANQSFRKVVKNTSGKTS

| Ki ([1]; Lanthascreen Eu binding assay) [nM] | Ki ([2]; Lanthascreen Eu binding assay) [nM] | inhibition at 1 µM [3, 5] [%] | inhibition at 1 µM [4, 6] [%] | Structure (SMILES) | inhibition at 1 µM [3, 7] [%] | inhibition at 1 µM [4, 8] [%] | Ki [1] [nM] | Ki [2] [nM] | % inhibition (ROCK1) 1 uM [3] [%] | % inhibition (ROCK2) 1 uM [4] [%] |
| --- | --- | --- | --- | --- | --- | --- | --- | --- | --- | --- |
| 48.4 | 41.2 | -2 | 4 | CC(C)(C)OC(=O)NCCCOc1cccc(-c2cccc(NC(=O)N3CC=C(c4ncnc5[nH]c6c(c45)CCC6)CC3)c2)c1 [Compound 164, tert-butyl (3-((3′-(4-(5,6,7,8-tetrahydrocyclopenta[4,5]pyrrolo[2,3-d]pyrimidin-4-yl)-1,2,3,6-tetrahydropyridine-1-carboxamido)-[1,1′-biphenyl]-3-yl)oxy)propyl)carbamate] |  |  |  |  |  |  |
| 94.6 | 122 | 12 | 2 | Cc1c[nH]c2ncnc(C3=CCN(C(=O)Nc4cccc(-c5cccc(OCCCNC(=O)OC(C)(C)C)c5)c4)CC3)c12 [Compound 166, tert-butyl N-[3-[3-[3-[[4-(5-methyl-7H-pyrrolo[2,3-d]pyrimidin-4-yl)-3,6-di hydro-2H-pyridine-1-carbonyl]amino]phenyl]phenoxy]propyl]carbamate] |  |  |  |  |  |  |
| 33.6 | 150 | 49 | 30 | Cc1c[nH]c2ncnc(C3=CCN(C(=O)Nc4cccc(Oc5cccc(N(C)C)c5)c4)CC3)c12 [Compound 177, N-(3-(3-(dimethylamino)phenoxy)phenyl)-4-(5-methyl-7H-pyrrolo[2,3-d]pyrimidin-4-yl)-3,6-dihydropyridine-1(2H)-carboxamide] |  |  |  |  |  |  |
| 4.93 | 5.46 | 60 | 37 | CC(=O)Nc1cccc(Oc2cccc(NC(=O)N3CC=C(c4ncnc5[nH]cc(C)c45)CC3)c2)c1 [Compound 219, N-(3-(3-acetamidophenoxy)phenyl)-4-(5-methyl-7H-pyrrolo[2,3-d]pyrimidin-4-yl)-3,6-dihydropyridine-1(2H)-carboxamide] |  |  |  |  |  |  |
| 12.9 | 16.3 | 55 | 27 | Cc1c[nH]c2ncnc(C3=CCN(C(=O)Nc4cccc(Oc5cccc(O)c5)c4)CC3)c12 [Compound 213, N-(3-(3-hydroxyphenoxy)phenyl)-4-(5-methyl-7H-pyrrolo[2,3-d]pyrimidin-4-yl)-3,6-dihydropyridine-1(2H)-carboxamide] |  |  |  |  |  |  |
| 6.49 | 19.6 | 7 | 2 | O=C(Nc1cccc(-c2ccncc2)c1)N1CC=C(c2ncnc3[nH]c4c(c23)CCC4)CC1 [Compound 124, N-(3-(Pyridin-4-yl)phenyl)-4-(5,6,7,8-tetrahydrocyclopenta [4,5]pyrrolo[2,3-d]pyrimidin-4-yl)-3,6-dihydropyridine-1(2H)-carboxamide] |  |  |  |  |  |  |
| 30.7 | 53.3 | 37 | 31 | Cc1c[nH]c2ncnc(C3=CCN(C(=O)Nc4cccc(Oc5ccc(N(C)C)cc5)c4)CC3)c12 [Compound 42, N-[3-[4-(Dimethylamino)phenoxy]phenyl]-4-(5-methyl-7H-pyrrolo[2,3-d]pyrimidin-4-yl)-3,6-dihydro-2H-pyridine-1-carboxamide] |  |  |  |  |  |  |
| 3.08 | 2.89 | 79 | 65 | CNC(=O)c1cc(Oc2cccc(NC(=O)N3CC=C(c4ncnc5[nH]cc(C)c45)CC3)c2)ccn1 [Compound 198, N-methyl-4-(3-(4-(5-methyl-7H-pyrrolo[2,3-d]pyrimidin-4-yl)-1,2,3,6-tetrahydropyridine-1-carboxamido)phenoxy)picolinamide] |  |  |  |  |  |  |
| 37.3 | 7.57 | 91 | 72 | Cc1c[nH]c2ncnc(C3=CCN(C(=O)Nc4cccc(Oc5cccnc5)c4)CC3)c12 [Compound 208, 4-(5-methyl-7H-pyrrolo[2,3-d]pyrimidin-4-yl)-N-(3-(pyridin-3-yloxy)phenyl)-3,6-dihydropyridine-1(2H)-carboxamide] |  |  |  |  |  |  |
|  |  |  |  | CN1CCc2[nH]c3ncnc(C4=CCN(C(=O)Nc5cccc(Br)c5)CC4)c3c2C1 [Compound 162, N-(3-Bromophenyl)-4-(6-methyl-6,7,8,9-tetrahydro-5H-pyrido [3′,4′:4,5]pyrrolo[2,3-d]pyrimidin-4-yl)-3,6-dihydropyridine-1(2H)-carboxamide] | 4 | -8 | 722 | 1030 |  |  |
|  |  |  |  | CC1=CC(C)=[N+]2C1=Cc1ccc(CCC(=O)NCCCOc3cccc(-c4cccc(NC(=O)N5CC=C(c6ncnc7[nH]c8c(c67)CCC8)CC5)c4)c3)n1[B-]2(F)F [Compound 167, N-(3′-(3-(3-(5,5-Difluoro-7,9-dimethyl-5H-dipyrrolo[1,2-c:2′,1′-f][1,3,2]diazaborinin-3-yl)propanamido)propoxy)-[1,1′-biphenyl]-3-yl)-4-(5,6,7,8-tetrahydrocyclopenta[4,5]pyrrolo[2,3-d]pyrimidin-4-yl)-3,6-dihydropyridine-1(2H)-carboxamide] |  |  | 112 | 113 | −4 | 6 |
| 103 | 466 | 5 | 3 | Cc1c[nH]c2ncnc(C3=CCN(C(=O)Nc4cccc(Oc5cccc(OCc6ccccc6)c5)c4)CC3)c12 [Compound 211, N-(3-(3-(benzyloxy)phenoxy)phenyl)-4-(5-methyl-7H-pyrrolo[2,3-d]pyrimidin-4-yl)-3,6-dihydropyridine-1(2H)-carboxamide] |  |  |  |  |  |  |
| 162 | 193 | 55 | 28 | CCc1cccc(NC(=O)N2CC=C(c3ncnc4[nH]cc(C)c34)CC2)c1 [Compound 20, N-(3-Ethylphenyl)-4-(5-methyl-7H-pyrrolo[2,3-d]pyrimidin-4-yl)-3,6-dihydropyridine-1(2H)-carboxamide] |  |  |  |  |  |  |
| 418 | 676 | 13 | 3 | Cc1c[nH]c2ncnc(C3=CCN(C(=O)Nc4cccc(Oc5ccc(Br)cc5Cl)c4)CC3)c12 [Compound 206, N-(3-(4-bromo-2-chlorophenoxy)phenyl)-4-(5-methyl-7H-pyrrolo[2,3-d]pyrimidin-4-yl)-3,6-dihydropyridine-1(2H)-carboxamide] |  |  |  |  |  |  |
| 30.2 | 20.5 | 7 | -5 | O=C(Nc1cccc(Oc2ccccc2)c1)N1CC=C(c2ncnc3[nH]c4c(c23)CCCC4)CC1 [Compound 126, N-(3-Phenoxyphenyl)-4-(6,7,8,9-tetrahydro-5H-pyrimido[4,5-b]indol-4-yl)-3,6-dihydropyridine-1(2H)-carboxamide] |  |  |  |  |  |  |
| 50.1 | 186 | 96 | 87 | Cc1c[nH]c2ncnc(C3=CCN(C(=O)Nc4cccs4)CC3)c12 [Compound 33, 4-(5-methyl-7H-pyrrolo[2,3-d]pyrimidin-4-yl)-N-(2-thienyl)-3,6-dihydro-2H-pyridine-1-carboxamide] |  |  |  |  |  |  |
| 1170 | 2440 | 1 | -9 | CN1CCc2[nH]c3ncnc(C4=CCN(C(=O)Nc5cccc(F)c5)CC4)c3c2C1 [Compound 160, N-(3-Fluorophenyl)-4-(6-methyl-6,7,8,9-tetrahydro-5H-pyrido[3′,4′:4,5]pyrrolo[2,3-d]pyrimidin-4-yl)-3,6-dihydropyridine-1(2H)-carboxamide] |  |  |  |  |  |  |
|  |  |  |  | Cc1c[nH]c2ncnc(C3=CCN(C(=O)N[C@@H]4CCCc5ccccc54)CC3)c12 [Compound 35-R, 4-(5-methyl-7H-pyrrolo[2,3-d]pyrimidin-4-yl)-N-tetralin-1-yl-3,6-dihydro-2H-pyridine-1-carboxamide] | 24 | 12 | 851 | 2540 |  |  |
| 46.2 | 9.83 | 35 | 13 | Cc1c[nH]c2ncnc(C3=CCN(C(=O)Nc4cccc(Oc5cccc(F)c5)c4)CC3)c12 [Compound 200, N-(3-(3-fluorophenoxy)phenyl)-4-(5-methyl-7H-pyrrolo[2,3-d]pyrimidin-4-yl)-3,6-dihydropyridine-1(2H)-carboxamide] |  |  |  |  |  |  |

| Structure (SMILES) | Ki ([1]; Lanthascreen Eu binding assay) [nM] | Ki ([2]; Lanthascreen Eu binding assay) [nM] | inhibition at 1 µM [3, 5] [%] | inhibition at 1 µM [4, 6] [%] | inhibition at 1 µM [3, 7] [%] | inhibition at 1 µM [4, 8] [%] | Ki [1] [nM] | Ki [2] [nM] | % inhibition (ROCK1) 1 uM [3] [%] | % inhibition (ROCK2) 1 uM [4] [%] |
| --- | --- | --- | --- | --- | --- | --- | --- | --- | --- | --- |
| Cc1c[nH]c2ncnc(C3=CCN(C(=O)NC4CCCc5ccccc54)CC3)c12 (racemic) [Compound 34-rac, 4-(5-methyl-7H-pyrrolo[2,3-d]pyrimidin-4-yl)-N-tetralin-1-yl-3,6-dihydro-2H-pyridine-1-carboxamide] | 610 | 742 |  |  | 79 | 52 |  |  |  |  |
| O=C(Nc1cccc(-c2ccccc2)c1)N1CC=C(c2ncnc3[nH]c4c(c23)CCC4)CC1 [Compound 123, N-([1,1′-Biphenyl]-3-yl)-4-(5,6,7,8-tetrahydrocyclopenta[4,5]pyrrolo[2,3-d]pyrimidin-4-yl)-3,6-dihydropyridine-1(2H)-carboxamide] | 11.5 | 16.2 |  |  | 10 | 1 |  |  |  |  |
| CN1CCc2[nH]c3ncnc(C4=CCN(C(=O)Nc5cccc(Cl)c5)CC4)c3c2C1 [Compound 161, N-(3-Chlorophenyl)-4-(6-methyl-6,7,8,9-tetrahydro-5H-pyrido[3′,4′:4,5]pyrrolo[2,3-d]pyrimidin-4-yl)-3,6-dihydropyridine-1(2H)-carboxamide] | 1170 | 2440 |  |  | 1 | -9 |  |  |  |  |
| Cc1c[nH]c2ncnc(C3=CCN(C(=O)Nc4cccc(Oc5cccc(OC(=O)N(C)C)c5)c4)CC3)c12 [Compound 216, 3-(3-(4-(5-methyl-7H-pyrrolo[2,3-d]pyrimidin-4-yl)-1,2,3,6-tetrahydropyridine-1-carboxamido)phenoxy)phenyl dimethylcarbamate] | 4.88 | 14.6 |  |  | 71 | 56 |  |  |  |  |
